Source: ChEMBL document CHEMBL1147729, “(+)-(2R,5S)-4-[4-cyano-3-(trifluoromethyl)phenyl]-2,5-dimethyl-N-[6-(trifluoromethyl)pyridin-3-yl]piperazine-1-carboxamide (YM580) as an orally potent and peripherally selective nonsteroidal androgen receptor antagonist” (J Med Chem, 2006)

Tests used:
Rattus norvegicus [1] = test: Effect on ventral prostate weight with reference to control in Wistar rat at 10 mg/kg/day, po; type: functional, Prostate gland; details: Rattus norvegicus, Wistar, Prostate gland
Rattus norvegicus [2] = test: Effect on ventral prostate weight with reference to control in Wistar rat at 30 mg/kg/day, po; type: functional; details: Prostate gland
Progesterone receptor = target: T1, Progesterone receptor (Rattus norvegicus, UniProt Q63449); test: Inhibition of rat PR
T1 sequence (Q63449 whole entry): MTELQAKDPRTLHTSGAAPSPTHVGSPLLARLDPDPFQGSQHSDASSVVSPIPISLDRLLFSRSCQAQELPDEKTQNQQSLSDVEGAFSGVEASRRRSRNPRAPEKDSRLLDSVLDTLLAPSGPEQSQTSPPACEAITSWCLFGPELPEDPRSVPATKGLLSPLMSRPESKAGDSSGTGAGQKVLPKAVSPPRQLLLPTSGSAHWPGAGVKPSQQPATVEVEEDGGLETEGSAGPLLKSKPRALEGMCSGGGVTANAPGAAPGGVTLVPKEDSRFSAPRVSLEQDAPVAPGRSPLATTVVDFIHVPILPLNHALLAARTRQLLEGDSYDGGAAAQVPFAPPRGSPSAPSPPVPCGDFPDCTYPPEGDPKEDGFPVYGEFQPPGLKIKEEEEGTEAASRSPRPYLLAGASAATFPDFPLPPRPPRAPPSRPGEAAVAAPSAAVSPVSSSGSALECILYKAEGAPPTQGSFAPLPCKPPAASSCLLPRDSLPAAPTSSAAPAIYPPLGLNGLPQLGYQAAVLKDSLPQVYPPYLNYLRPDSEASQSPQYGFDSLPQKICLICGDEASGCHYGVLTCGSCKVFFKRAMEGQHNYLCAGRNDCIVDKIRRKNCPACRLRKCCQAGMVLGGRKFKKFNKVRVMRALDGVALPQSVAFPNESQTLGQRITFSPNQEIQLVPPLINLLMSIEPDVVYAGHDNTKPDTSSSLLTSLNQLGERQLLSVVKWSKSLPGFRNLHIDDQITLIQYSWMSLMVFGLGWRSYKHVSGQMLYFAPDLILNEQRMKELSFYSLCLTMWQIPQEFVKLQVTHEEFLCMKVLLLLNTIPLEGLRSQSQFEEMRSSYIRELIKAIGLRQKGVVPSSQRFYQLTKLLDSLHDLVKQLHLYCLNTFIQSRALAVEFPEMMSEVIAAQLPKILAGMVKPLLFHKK

Glucocorticoid receptor = target: T2, Glucocorticoid receptor (Homo sapiens, UniProt P04150); test: Inhibition of human GR
T2 sequence (P04150 whole entry): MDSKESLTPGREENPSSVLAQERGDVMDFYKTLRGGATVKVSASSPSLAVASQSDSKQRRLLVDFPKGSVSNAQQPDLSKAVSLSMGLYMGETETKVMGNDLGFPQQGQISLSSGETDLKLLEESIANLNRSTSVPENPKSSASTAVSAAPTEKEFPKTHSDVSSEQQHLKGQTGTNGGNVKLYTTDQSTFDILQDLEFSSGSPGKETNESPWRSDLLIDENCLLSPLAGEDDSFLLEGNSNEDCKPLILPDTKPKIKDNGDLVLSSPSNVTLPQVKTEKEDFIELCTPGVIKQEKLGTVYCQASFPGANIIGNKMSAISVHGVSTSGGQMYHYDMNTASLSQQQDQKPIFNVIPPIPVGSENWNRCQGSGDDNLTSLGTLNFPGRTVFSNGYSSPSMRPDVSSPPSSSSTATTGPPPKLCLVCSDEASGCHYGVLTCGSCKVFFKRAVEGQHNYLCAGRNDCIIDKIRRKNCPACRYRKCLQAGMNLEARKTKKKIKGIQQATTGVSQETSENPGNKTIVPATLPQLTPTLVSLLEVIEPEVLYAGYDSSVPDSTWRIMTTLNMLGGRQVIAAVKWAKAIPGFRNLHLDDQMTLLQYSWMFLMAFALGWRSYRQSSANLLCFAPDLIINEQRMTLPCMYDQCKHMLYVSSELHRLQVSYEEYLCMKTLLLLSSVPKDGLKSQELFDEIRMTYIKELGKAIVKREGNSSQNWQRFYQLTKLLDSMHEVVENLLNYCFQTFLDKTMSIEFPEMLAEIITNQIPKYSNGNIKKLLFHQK

Estrogen receptor = target: T3, Estrogen receptor (Homo sapiens, UniProt P03372); test: Inhibition of human ERalpha
T3 sequence (P03372 whole entry): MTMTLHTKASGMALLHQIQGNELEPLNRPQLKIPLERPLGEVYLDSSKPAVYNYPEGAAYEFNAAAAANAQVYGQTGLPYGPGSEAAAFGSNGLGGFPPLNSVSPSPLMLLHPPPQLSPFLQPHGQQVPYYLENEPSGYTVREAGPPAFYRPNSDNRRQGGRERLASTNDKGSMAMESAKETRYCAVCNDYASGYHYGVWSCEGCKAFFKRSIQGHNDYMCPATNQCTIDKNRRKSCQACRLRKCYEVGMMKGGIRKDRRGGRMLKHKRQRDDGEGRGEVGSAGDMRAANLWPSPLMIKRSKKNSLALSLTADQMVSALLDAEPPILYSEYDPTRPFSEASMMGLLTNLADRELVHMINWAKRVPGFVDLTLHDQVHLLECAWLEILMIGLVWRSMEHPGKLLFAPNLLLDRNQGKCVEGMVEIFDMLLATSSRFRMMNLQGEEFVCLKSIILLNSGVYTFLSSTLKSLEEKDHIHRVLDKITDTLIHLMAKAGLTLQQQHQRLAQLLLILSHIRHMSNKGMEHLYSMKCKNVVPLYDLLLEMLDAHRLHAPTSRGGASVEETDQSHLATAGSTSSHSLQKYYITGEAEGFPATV

[3] = Cmax in rat plasma at 3 mg/kg, po; type: ADME, organism-based; set-up: dose 3 mg/kg, route oral
[4] = AUC (0-72)hrs in rat plasma at 3 mg/kg, po; type: ADME, organism-based; set-up: time < 72 hr, dose 3 mg/kg, route oral
[5] = Half life in rat plasma at 3 mg/kg, po; type: ADME, organism-based; set-up: dose 3 mg/kg, route oral
[6] = Oral clearance in rat at 3 mg/kg, po; type: ADME, organism-based; set-up: dose 3 mg/kg, route oral; details: in vivo
[7] = Cmax in rat ventral prostate at 3 mg/kg, po; type: ADME, organism-based, Prostate gland; set-up: dose 3 mg/kg, route oral
[8] = AUC (0-72)hrs in rat ventral prostate at 3 mg/kg, po; type: ADME, organism-based, Prostate gland; set-up: time < 72 hr, dose 3 mg/kg, route oral
[9] = Half life in rat ventral prostate at 3 mg/kg, po; type: ADME, organism-based, Prostate gland; set-up: dose 3 mg/kg, route oral
[10] = Oral clearance in rat ventral prostate at 3 mg/kg, po; type: ADME, organism-based, Prostate gland; set-up: dose 3 mg/kg, route oral
[11] = Cmax in rat hypothalamus at 3 mg/kg, po; type: ADME, organism-based; set-up: dose 3 mg/kg, route oral
[12] = AUC (0-72)hrs in rat hypothalamus at 3 mg/kg, po; type: ADME, organism-based; set-up: time < 72 hr, dose 3 mg/kg, route oral

C[C@@H]1CN(c2ccc(C#N)c(C(F)(F)F)c2)[C@@H](C)CN1C(=O)Nc1ccc(C(F)(F)F)nc1 (racemic)
inhibition in vivo at 10 mg/kg/day (Rattus norvegicus [1]): 67% | ED50 (Rattus norvegicus [2]): 2.2 mg/kg | Ki (Progesterone receptor): 3.3 µM | Ki (Glucocorticoid receptor): > 100 µM | Ki (Estrogen receptor): > 100 µM | Cmax [3]: 702 ng/mL | AUC at 72 h [4]: 22000 ng·h/mL | half-life [5]: 12.5 h | CL/F [6]: 2.22 mL/min/kg | Cmax [7]: 1560 ng/mL | AUC at 72 h [8]: 43200 ng·h/mL | half-life [9]: 11.2 h | CL/F [10]: 1.14 mL/min/kg | Cmax [11]: 96 ng/mL | AUC at 72 h [12]: 2580 ng·h/mL
